The values below are quoted from earlier work in patent EP4119941A1, “HEMOGLOBIN ASSAY METHOD” (Sekisui Medical Co., Ltd., priority 2020, dated 2021).

For orientation: pKa means the pH at which an ionisable group is half protonated.

For this data set the following is noted: at 25°C.

In the case of `O=S(=O)(O)CCNC(CO)(CO)CO` [TES, N-tris(hydroxymethyl)methyl-2-aminoethanesulfonic acid], the pKa is on record as 7.55.
